This note sets out measurements from US20230098772A1, “ADVANCED MICROBIOME THERAPEUTICS ENGINEERED TO PRODUCE SEROTONIN IN VIVO” (DANMARKS TEKNISKE UNIVERSITET, priority 2019, published 2023).

Experiment [1] relates to mice. Briefly: Open Field Test after 21 days treatment, comparison with fluoxetine. The format is in vivo, mice (C57BL/6). The note with it: oN14 10^9 cells oral gavage, fluoxetine 10 mg/kg I.P. The method, then: 9.1.3 Open Field Test: Each mouse was placed in a white, open-roof, well lite, 50 cm (length)×50 cm (width)×38 cm (height) chamber and recorded for 10 minutes following previously described methods (Spohn, S. N. et al., 2016). Mice were then placed back into their original cage. Fecal pellets produced during the 10-minute test were counted. Recordings were then post processed and analyzed using BehaviorCloud as previously described (Spohn, S. N. et al., 2016). Mouse tracking software recorded total path of movement of each mouse, total distance traveled, time spent in the inner zone defined as the […] and outer zone defined as the outer 10 cm border closest to the walls, number of times entering the inner zone, and distance traveled within the inner zone.
(§1) 10.1.1 Administration: as described for oral administration in 6.1.1, but with the following modifications: The mice were administered sterile PBS only (PBS) or freshly-grown 10^9 cells of E. coli Nissle strain designated oN14 (E. coli Nissle strain oN comprising pMUT14-ser) in sterile PBS (oN14) by oral gavage. Additionally, the mice were administered a 200 μl intraperitoneal (I.P.) injection of saline or the SSRI, fluoxetine at 10 mg/kg body weight in saline. The mice received the oral and IP administered co-treatments every 24 hrs at the same time of day for 21 days. Accordingly, the four mice treatment groups received: IP: saline/Gavage: PBS (negative control); IP: Fluoxetine/Gavage: PBS (SSRI positive comparator), IP: saline/Gavage: oN14 (oN14 positive comparator); and IP: Fluoxetine/Gavage: oN14 (positive combination comparator). 24 hours after the last administration, the mice were subjected to motility and behavioral testing.

The subject of experiment [2] is mice. Nature of the experiment: Forced Swim Test after 21 days treatment, comparison with fluoxetine. In kind it is in vivo, mice (C57BL/6). The note with it: oN14 10^9 cells oral gavage, fluoxetine 10 mg/kg I.P. As to the method:
9.1.2 Forced Swim Test: Each mouse was placed in clear cylindrical tanks (30 cm height×20 cm) with 15 cm of water at 23-25° C. for 6 minutes and recorded, as described by Ferguson (2001). Mice were then towel dried and placed under a heat lamp to dry to prevent hypothermia and then placed back in their original cage. Recordings were de-identified and a blinded observer, scored recordings for the time spent immobile during the last 4 minutes of the 6-minute test, as described by Can et al., (2012).
as §1, with “24 hours after the last administration, the mice were subjected to motility and behavioral testing.” left out

Experiment [3] relates to 5-HT biosynthetic pathway. Nature of the experiment: In vitro metabolite production by E. coli Nissle strains (LC-MS of culture media). The format is cell-based. The conditions noted are these: strains comprising pMUT10-5htp; vs folE WT; FIG. 5F. The method, then:
Strains were grown in a modified M9 medium, containing 1× M9 salts (M6030, Sigma Aldrich), 0.2% (w/v) glucose, 0.1% (w/v) casamino acids (Cat. No. C2000, Teknova), 1 mM MgSO4, 50 μM FeCl3, 0.2% (v/v) 2YT medium (composition see below), and 50 mg/L of L-tryptophan unless stated otherwise. Kanamycin was added at a final concentration of 50 mg/L unless stated otherwise. Three single colonies were picked from each strain, grown in 300 μl medium in 96 deep-well plates and shaken at 250 rpm at 37° C. for 16 hours. The main culture was inoculated by diluting this pre-culture 1:100 into fresh medium, and cells were grown for 24 h under the same conditions. In the case of substrate feeding, TRP and 5-HTP was added to the growth medium in an amount of 100 mg TRP or 5-HTP/L. Afterwards, the culture supernatant was separated from cells using a 0.2 μm pore size filter, and frozen at −20° C. until analysis by LC-MS. […]
Detection of serotonin, tryptamine, tryptophan and 5-HTP were conducted by liquid chromatography mass spectrometry (LC-MS) measurements on a Dionex UltiMate 3000 UHPLC (Fisher Scientific, San Jose, Calif.) connected to an Orbitrap Fusion Mass Spectrometer (Thermo Fisher Scientific, San Jose, Calif.). […] Quantification of the compounds was based on calculations from calibration standards analyzed before and after sets of 24 samples. […]

For the molecule `CNCCC(Oc1ccc(C(F)(F)F)cc1)c1ccccc1` (stereo not drawn) [Fluoxetine], in experiment [1], the “distance travelled in the inner zone in OFT” value is given as “increased”, the “fecal boli produced during the OFT” value is recorded as “reduction”, the “time spent in the inner zone in OFT” value was “increased” and the “total number of entries in the inner zone in OFT” value is reported as “increased”. Besides, in experiment [2], the “time of immobility in Forced Swim Test” value is “significantly reduce”.

B1: mutant GCH1: mutant GTP cyclohydrolase I with T198I substitution encoded by mutated folE gene (protein, UniProt P0A6T5 2-222, looked up, variant T198I)
GTP cyclohydrolase 1: PSLSKEAALVHEALVARGLETPLRPPVHEMDNETRKSLIAGHMTEIMQLLNLDLADDSLMETPHRIAKMYVDEIFSGLDYANFPKITLIENKMKVDEMVTVRDITLTSTCEHHFVTIDGKATVAYIPKDSVIGLSKINRIVQFFAQRPQVQERLTQQILIALQTLLGTNNVAVSIDAVHYCVKARGIRDATSATTTISLGGLFKSSQNTRHEFLRAVRHHN
On to B1, for which the “increase of hydroxylation of tryptophan to 5-hydroxytryptophan catalyzed by human tryptophan 5-hydroxylase” value in experiment [3] is 4 fold.
